{"source": "paper PMC5218480", "about": "(PLoS ONE, 2017)", "tested_on": "MV-4-11 cells", "assay": "Gene expression microarray analysis (Affymetrix PrimeView) and GSEA", "type": "cell-based, human", "design": "RFU PODN (11730768_x_at) / Fold change /veh PODN (11730768_x_at) / RFU LINC00158 (11744669_a_at) / Fold change /veh LINC00158 (11744669_a_at) / RFU DUSP10 (11751237_a_at) / Fold change /veh DUSP10 (11751237_a_at) / RFU ID3 (11757404_x_at) / Fold change /veh ID3 (11757404_x_at) / RFU PLEKHG5 (11737974_s_at) / Fold change /veh PLEKHG5 (11737974_s_at) / RFU LRRC4B (11730491_at) / Fold change /veh LRRC4B (11730491_at) / RFU GIMAP4 (11747438_a_at) / Fold change /veh GIMAP4 (11747438_a_at) / RFU KRT8 (11758183_x_at) / Fold change /veh KRT8 (11758183_x_at) / RFU CNN1 (11734310_a_at) / Fold change /veh CNN1 (11734310_a_at) / RFU VPS37D (11726825_at) / Fold change /veh VPS37D (11726825_at) / RFU C10orf10 (11716522_x_at) / Fold change /veh C10orf10 (11716522_x_at) / RFU KIR2DL2 /// KIR2DL4 /// KIR2DL5A /// KIR2DL5B /// KIR2DS1 /// KIR2DS2 /// KIR2DS3 /// KIR2DS4 /// KIR3DL3 /// KIR3DL3 /// KIR3DS1 (11738374_at) / Fold change /veh KIR2DL2 /// KIR2DL4 /// KIR2DL5A /// KIR2DL5B /// KIR2DS1 /// KIR2DS2 /// KIR2DS3 /// KIR2DS4 /// KIR3DL3 /// KIR3DL3 /// KIR3DS1 (11738374_at) / RFU C1QL1 (11718748_at) / Fold change /veh C1QL1 (11718748_at) / RFU TMPRSS4 (11747572_a_at) / Fold change /veh TMPRSS4 (11747572_a_at) / RFU HAMP (11756126_x_at) / Fold change /veh HAMP (11756126_x_at) / RFU RNFT2 (11725882_a_at) / Fold change /veh RNFT2 (11725882_a_at) / RFU NR4A2 (11747474_a_at) / Fold change /veh NR4A2 (11747474_a_at) / RFU ABCC12 (11746883_a_at) / Fold change /veh ABCC12 (11746883_a_at) / RFU TMEM136 (11760407_x_at) / Fold change /veh TMEM136 (11760407_x_at) / RFU CLDN22 /// WWC2 (11732394_at) / Fold change /veh CLDN22 /// WWC2 (11732394_at) / RFU HLA-DPB1 (11760878_x_at) / Fold change /veh HLA-DPB1 (11760878_x_at) / RFU SPINT1 (11716480_a_at) / Fold change /veh SPINT1 (11716480_a_at) / RFU GAP43 (11754022_s_at) / Fold change /veh GAP43 (11754022_s_at) / RFU A4GNT (11735810_at) / Fold change /veh A4GNT (11735810_at) / RFU PRB3 (11715151_x_at) / Fold change /veh PRB3 (11715151_x_at) / RFU TUBB4B (11761932_at) / Fold change /veh TUBB4B (11761932_at) / RFU CAPN14 (11732068_a_at) / Fold change /veh CAPN14 (11732068_a_at) / RFU TMCC2 (11721928_a_at) / Fold change /veh TMCC2 (11721928_a_at) / RFU IRGQ (11745062_a_at) / Fold change /veh IRGQ (11745062_a_at) / RFU FAM174B (11720279_a_at) / Fold change /veh FAM174B (11720279_a_at) / RFU TMPRSS4 (11748680_a_at) / Fold change /veh TMPRSS4 (11748680_a_at) / RFU FAM212B (11763350_a_at) / Fold change /veh FAM212B (11763350_a_at) / RFU PLEKHG5 (11743358_a_at) / Fold change /veh PLEKHG5 (11743358_a_at) / RFU ZSCAN30 (11745921_a_at) / Fold change /veh ZSCAN30 (11745921_a_at) / RFU CMKLR1 (11741424_a_at) / Fold change /veh CMKLR1 (11741424_a_at) / RFU LOC101060620 /// MAPK8IP1 (11723275_at) / Fold change /veh LOC101060620 /// MAPK8IP1 (11723275_at) / RFU SPTSSB (11747773_x_at) / Fold change /veh SPTSSB (11747773_x_at) / RFU PRSS12 (11739890_at) / Fold change /veh PRSS12 (11739890_at) / RFU BIN1 (11741810_x_at) / Fold change /veh BIN1 (11741810_x_at) / RFU WNT11 (11732464_a_at) / Fold change /veh WNT11 (11732464_a_at) / RFU C10orf10 (11716521_a_at) / Fold change /veh C10orf10 (11716521_a_at) / RFU C5orf56 (11738089_at) / Fold change /veh C5orf56 (11738089_at) / RFU CYB561 (11721691_x_at) / Fold change /veh CYB561 (11721691_x_at) / RFU ANKRD19P (11752326_a_at) / Fold change /veh ANKRD19P (11752326_a_at) / RFU OR2T12 /// OR2T33 /// OR2T8 (11738714_s_at) / Fold change /veh OR2T12 /// OR2T33 /// OR2T8 (11738714_s_at) / RFU VCAN (11748164_a_at) / Fold change /veh VCAN (11748164_a_at) / RFU JSRP1 (11732532_at) / Fold change /veh JSRP1 (11732532_at) / RFU KRTAP10-11 (11738290_x_at) / Fold change /veh KRTAP10-11 (11738290_x_at) / RFU MYO3A (11730013_a_at) / Fold change /veh MYO3A (11730013_a_at) / RFU EBF3 (11725865_a_at) / Fold change /veh EBF3 (11725865_a_at) / RFU CAMK2N1 (11719241_x_at) / Fold change /veh CAMK2N1 (11719241_x_at) / RFU C5orf56 (11738088_a_at) / Fold change /veh C5orf56 (11738088_a_at) / RFU OLFML3 (11715873_a_at) / Fold change /veh OLFML3 (11715873_a_at) / RFU LOC100653217 /// NTM (11731650_a_at) / Fold change /veh LOC100653217 /// NTM (11731650_a_at) / RFU MAPK11 (11762145_a_at) / Fold change /veh MAPK11 (11762145_a_at) / RFU FIZ1 (11724087_x_at) / Fold change /veh FIZ1 (11724087_x_at) / RFU OASL (11726364_x_at) / Fold change /veh OASL (11726364_x_at) / RFU SOX15 (11748057_x_at) / Fold change /veh SOX15 (11748057_x_at) / RFU CD79A (11719716_a_at) / Fold change /veh CD79A (11719716_a_at) / RFU HIST1H1D (11736915_at) / Fold change /veh HIST1H1D (11736915_at) / RFU CASKIN2 (11723855_a_at) / Fold change /veh CASKIN2 (11723855_a_at) / RFU LOC730098 (11760151_x_at) / Fold change /veh LOC730098 (11760151_x_at) / RFU OR4N2 (11742367_at) / Fold change /veh OR4N2 (11742367_at) / RFU PRRT2 (11749266_a_at) / Fold change /veh PRRT2 (11749266_a_at) / RFU SNX32 (11753110_a_at) / Fold change /veh SNX32 (11753110_a_at) / RFU CDHR5 (11726645_a_at) / Fold change /veh CDHR5 (11726645_a_at) / RFU RCAN1 (11760418_a_at) / Fold change /veh RCAN1 (11760418_a_at) / RFU FAM167A (11723789_a_at) / Fold change /veh FAM167A (11723789_a_at) / RFU FAM26E (11764081_at) / Fold change /veh FAM26E (11764081_at) / RFU ISYNA1 (11749810_s_at) / Fold change /veh ISYNA1 (11749810_s_at) / RFU ACY1 (11761880_at) / Fold change /veh ACY1 (11761880_at) / RFU 11764098_at / Fold change /veh 11764098_at / RFU SAMD14 (11745864_x_at) / Fold change /veh SAMD14 (11745864_x_at) / RFU NPB (11741838_a_at) / Fold change /veh NPB (11741838_a_at) / RFU TMPRSS6 (11731388_a_at) / Fold change /veh TMPRSS6 (11731388_a_at) / RFU KRTAP10-2 (11738614_at) / Fold change /veh KRTAP10-2 (11738614_at) / RFU ARHGAP8 /// PRR5-ARHGAP8 (11727945_x_at) / Fold change /veh ARHGAP8 /// PRR5-ARHGAP8 (11727945_x_at) / RFU KRTAP5-7 /// NADSYN1 (11734609_at) / Fold change /veh KRTAP5-7 /// NADSYN1 (11734609_at) / RFU RASL12 (11751679_a_at) / Fold change /veh RASL12 (11751679_a_at) / RFU CDKN2B (11736163_a_at) / Fold change /veh CDKN2B (11736163_a_at) / RFU PRF1 (11729649_at) / Fold change /veh PRF1 (11729649_at) / RFU, ZNF638 /// ZNF638-IT1 / Fold change vs veh, ZNF638 /// ZNF638-IT1 / RFU, PANK3 / Fold change vs veh, PANK3 / RFU, SH3YL1 / Fold change vs veh, SH3YL1 / RFU, ZEB2 / Fold change vs veh, ZEB2 / RFU, NRIP1 / Fold change vs veh, NRIP1 / RFU, PTTG1IP / Fold change vs veh, PTTG1IP / RFU, CAPN2 / Fold change vs veh, CAPN2 / RFU, MED14 / Fold change vs veh, MED14 / RFU, SNORA58 / Fold change vs veh, SNORA58 / RFU, C1orf63 / Fold change vs veh, C1orf63 / RFU, LRRFIP1 / Fold change vs veh, LRRFIP1 / RFU, NDUFAF7 / Fold change vs veh, NDUFAF7 / RFU, SLC12A2 / Fold change vs veh, SLC12A2 / RFU, IBTK / Fold change vs veh, IBTK / RFU, ESF1 / Fold change vs veh, ESF1 / Fold change vs veh, TMEM50B / RFU, TAOK1 / Fold change vs veh, TAOK1 / RFU, ACBD3 / Fold change vs veh, ACBD3 / RFU, TMA16 / Fold change vs veh, TMA16 / RFU, RWDD3 / Fold change vs veh, RWDD3 / RFU, BCAT1 / Fold change vs veh, BCAT1 / RFU, EDEM3 / Fold change vs veh, EDEM3 / RFU, TMEM33 / Fold change vs veh, TMEM33 / RFU, WDR75 / Fold change vs veh, WDR75 / RFU, AHCTF1 / Fold change vs veh, AHCTF1 / RFU, TFRC / Fold change vs veh, TFRC / RFU, ZDHHC17 / Fold change vs veh, ZDHHC17 / RFU, NOM1 / Fold change vs veh, NOM1 / RFU, ARL8B / Fold change vs veh, ARL8B / RFU, ZBTB11 / Fold change vs veh, ZBTB11 / RFU, TAMM41 / Fold change vs veh, TAMM41 / RFU, KIAA1704 /// LOC100996395 / Fold change vs veh, KIAA1704 /// LOC100996395 / RFU, ING1 / Fold change vs veh, ING1 / RFU, TRMT61B / Fold change vs veh, TRMT61B / RFU, FUBP3 / Fold change vs veh, FUBP3 / RFU, TP53 / Fold change vs veh, TP53 / RFU, TNKS2 / Fold change vs veh, TNKS2 / RFU, ZFP14 / Fold change vs veh, ZFP14 / RFU, ACTR2 / Fold change vs veh, ACTR2 / RFU, PPP3R1 / Fold change vs veh, PPP3R1 / RFU, PIK3R1 / Fold change vs veh, PIK3R1 / RFU, HNRNPA1 / Fold change vs veh, HNRNPA1 / RFU, RNF170 / Fold change vs veh, RNF170 / RFU, ZNF28 / Fold change vs veh, ZNF28 / RFU, RNGTT / Fold change vs veh, RNGTT / RFU, OGT / Fold change vs veh, OGT / RFU, BRD1 / Fold change vs veh, BRD1 / RFU, MARS / Fold change vs veh, MARS / RFU, ZNF655 / Fold change vs veh, ZNF655 / RFU, FAHD1 / Fold change vs veh, FAHD1 / RFU, BDP1 / Fold change vs veh, BDP1 / RFU, LRRCC1 / Fold change vs veh, LRRCC1 / RFU, ARID1A / Fold change vs veh, ARID1A / RFU, ZNF146 / Fold change vs veh, ZNF146 / RFU, ZNF330 / Fold change vs veh, ZNF330 / RFU, GPN3 / Fold change vs veh, GPN3 / RFU, C9orf123 / Fold change vs veh, C9orf123 / RFU, N4BP2L2 / Fold change vs veh, N4BP2L2 / RFU, ARFIP1 / Fold change vs veh, ARFIP1 / RFU, FAM179B / Fold change vs veh, FAM179B / RFU, BCL10 / Fold change vs veh, BCL10 / RFU, UHRF1BP1L / Fold change vs veh, UHRF1BP1L / RFU, BET1 / Fold change vs veh, BET1 / RFU, CNOT2 / Fold change vs veh, CNOT2 / RFU, ZNF268 / Fold change vs veh, ZNF268 / Fold change vs veh, ZNF507 / RFU, DGCR2 / Fold change vs veh, DGCR2 / RFU, WDSUB1 / Fold change vs veh, WDSUB1 / Fold change vs veh, HSP90B1 /// MIR3652 / RFU, ADSS / Fold change vs veh, ADSS / RFU, GK / Fold change vs veh, GK / RFU, ZNF148 / Fold change vs veh, ZNF148 / RFU, TAF9 / Fold change vs veh, TAF9 / RFU, SLC1A5 / Fold change vs veh, SLC1A5 / RFU, SLMO2 / Fold change vs veh, SLMO2 / RFU, ABCC4 / Fold change vs veh, ABCC4 / RFU, LOC101060439 /// RAP1B / Fold change vs veh, LOC101060439 /// RAP1B / RFU, RFX7 / Fold change vs veh, RFX7 / RFU, GTPBP10 / Fold change vs veh, GTPBP10 / RFU, CNEP1R1 / Fold change vs veh, CNEP1R1 / RFU, BIVM-ERCC5 /// ERCC5 / Fold change vs veh, BIVM-ERCC5 /// ERCC5 / RFU, ILF3 / Fold change vs veh, ILF3 / RFU 11762660_at / Fold change /veh 11762660_at / RFU VCAN (11757783_s_at) / Fold change /veh VCAN (11757783_s_at) / RFU DDX43 (11728927_at) / Fold change /veh DDX43 (11728927_at) / RFU KRT8 (11758188_x_at) / Fold change /veh KRT8 (11758188_x_at) / RFU NKD1 (11759106_at) / Fold change /veh NKD1 (11759106_at) / RFU SRD5A1 (11742802_a_at) / Fold change /veh SRD5A1 (11742802_a_at) / RFU TPSAB1 /// TPSB2 (11721975_s_at) / Fold change /veh TPSAB1 /// TPSB2 (11721975_s_at) / RFU GSTM3 (11746129_a_at) / Fold change /veh GSTM3 (11746129_a_at) / RFU IL23R (11737362_x_at) / Fold change /veh IL23R (11737362_x_at) / RFU TMEM51 (11727254_a_at) / Fold change /veh TMEM51 (11727254_a_at) / RFU PIWIL2 (11732686_x_at) / Fold change /veh PIWIL2 (11732686_x_at) / RFU ORM1 (11744905_x_at) / Fold change /veh ORM1 (11744905_x_at) / RFU CCDC152 (11743942_at) / Fold change /veh CCDC152 (11743942_at) / RFU ECM1 (11717891_a_at) / Fold change /veh ECM1 (11717891_a_at) / RFU IL23R (11748794_a_at) / Fold change /veh IL23R (11748794_a_at) / RFU TNFAIP8L3 (11732012_x_at) / Fold change /veh TNFAIP8L3 (11732012_x_at) / RFU MBOAT4 (11741988_at) / Fold change /veh MBOAT4 (11741988_at) / RFU 11764193_at / Fold change /veh 11764193_at / RFU TMEM53 (11763286_at) / Fold change /veh TMEM53 (11763286_at) / RFU MAGEB2 (11727129_at) / Fold change /veh MAGEB2 (11727129_at) / RFU TMEM200A (11744735_a_at) / Fold change /veh TMEM200A (11744735_a_at) / RFU CCDC152 (11751479_a_at) / Fold change /veh CCDC152 (11751479_a_at) / RFU FAM211A (11726209_a_at) / Fold change /veh FAM211A (11726209_a_at) / RFU RGS16 (11746705_a_at) / Fold change /veh RGS16 (11746705_a_at) / RFU VCAN (11755009_s_at) / Fold change /veh VCAN (11755009_s_at) / RFU RHOB (11743442_s_at) / Fold change /veh RHOB (11743442_s_at) / RFU RGS16 (11720943_a_at) / Fold change /veh RGS16 (11720943_a_at) / RFU RGS16 (11720944_at) / Fold change /veh RGS16 (11720944_at) / RFU, VPS4B / Fold change vs veh, VPS4B / RFU, CREB1 / Fold change vs veh, CREB1 / RFU, DNAJC13 / Fold change vs veh, DNAJC13 / RFU, GNAQ / Fold change vs veh, GNAQ / RFU, CDK5R1 / Fold change vs veh, CDK5R1 / RFU, ZRANB3 / Fold change vs veh, ZRANB3 / RFU, CUL4A / Fold change vs veh, CUL4A / RFU, CCNY / Fold change vs veh, CCNY / RFU, UFL1 / Fold change vs veh, UFL1 / RFU, COG3 / Fold change vs veh, COG3 / RFU, DIAPH2 / Fold change vs veh, DIAPH2 / RFU, SKA2 / Fold change vs veh, SKA2 / RFU, AFF3 / Fold change vs veh, AFF3 / RFU, LMF1 / Fold change vs veh, LMF1 / RFU, IPO11 / Fold change vs veh, IPO11 / RFU, DFFB / Fold change vs veh, DFFB / RFU, FOXP1 / Fold change vs veh, FOXP1 / RFU, CARD8 / Fold change vs veh, CARD8 / RFU, STRN3 / Fold change vs veh, STRN3 / RFU, ADK / Fold change vs veh, ADK / RFU, RASSF2 / Fold change vs veh, RASSF2 / RFU, WIPF1 / Fold change vs veh, WIPF1 / RFU, LARP1B / Fold change vs veh, LARP1B / RFU, RASA1 / Fold change vs veh, RASA1 / RFU, RB1 / Fold change vs veh, RB1 / RFU, PPFIA1 / Fold change vs veh, PPFIA1 / RFU, MAT2A / Fold change vs veh, MAT2A / RFU, CCT5 / Fold change vs veh, CCT5 / RFU, WDR92 / Fold change vs veh, WDR92 / RFU, CUX1 / Fold change vs veh, CUX1 / RFU, TTC7A / Fold change vs veh, TTC7A / RFU, TMEM135 / Fold change vs veh, TMEM135 / RFU, DEPTOR / Fold change vs veh, DEPTOR / RFU, CPM / Fold change vs veh, CPM / RFU, DNAJB6 / Fold change vs veh, DNAJB6 / RFU, CACNA2D3 / Fold change vs veh, CACNA2D3 / RFU, DTX4 / Fold change vs veh, DTX4 / RFU, TFCP2 / Fold change vs veh, TFCP2 / RFU, GMCL1 /// GMCL1P1 / Fold change vs veh, GMCL1 /// GMCL1P1 / RFU, AEBP2 / Fold change vs veh, AEBP2 / RFU, SNHG1 /// SNORD22 /// SNORD25 /// SNORD26 /// SNORD27 /// SNORD28 /// SNORD29 /// SNORD31 / Fold change vs veh, SNHG1 /// SNORD22 /// SNORD25 /// SNORD26 /// SNORD27 /// SNORD28 /// SNORD29 /// SNORD31 / Fold change (Aza/veh), C12orf56 (ProbeSet 11735607_a_at) / Fold change (ACY-1035/veh), C12orf56 (ProbeSet 11735607_a_at) / Fold change (Aza/veh), FGFR1OP (ProbeSet 11751329_s_at) / Fold change (ACY-1035/veh), FGFR1OP (ProbeSet 11751329_s_at) / Fold change (Aza/veh), VPS36 (ProbeSet 11739960_a_at) / Fold change (ACY-1035/veh), VPS36 (ProbeSet 11739960_a_at) / RFU SYPL1 (11715823_x_at) / Fold change /veh SYPL1 (11715823_x_at) / RFU IGFBP7 (11715501_s_at) / Fold change /veh IGFBP7 (11715501_s_at) / RFU REEP3 (11722064_at) / Fold change /veh REEP3 (11722064_at) / RFU IGLL1 (11728026_x_at) / Fold change /veh IGLL1 (11728026_x_at): dose or concentration left out as unconfirmed", "conditions": "ProbeSet 11732277_a_at; LIST D"}
{"smiles": "Nc1ncn([C@@H]2O[C@H](CO)[C@@H](O)[C@H]2O)c(=O)n1", "note": "[azacitidine]", "values": [{"measurement": "RFU, FOXP1", "result": 363.93, "unit": "RFU"}]}
